# Experimental data from PubChem BioAssay AID1259411 (Chemical Carcinogenesis Research Information System (CCRIS), 2018).
# Active and inactive are the calls of the source. The rule behind the calls is not given here.
# Test system: rodent carcinogenicity bioassays, tumor incidence
# Assay: CCRIS carcinogenicity studies
# Method in brief: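 Archive of carcinogenicity, mutagenicity, tumor promotion and tumor inhibition results drawn from journals, NCI reports and other sources, expert-reviewed; covers 1985-2011 and is no longer updated.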
structure (smiles),measurement,setting,value
O=C(Cn1ccnc1[N+](=O)[O-])NCc1ccccc1,carcinogen call,"Species: MOUSE, Strain/Sex: SWISS/FEMALE, Route: INTRAPERITONEAL, Dose: 0, 8 UG/G BW 1/D FOR 30 DAYS (STUDY DURATION: LIFETIME), Tumor Site: Type of Lesion: LYMPHATIC SYSTEM: LYMPHOMA",active; positive
same,carcinogen call,"Species: MOUSE, Strain/Sex: SWISS/FEMALE, Route: INTRAPERITONEAL, Dose: 0, 8 UG/G BW 1/D FOR 60 DAYS (STUDY DURATION: LIFETIME), Tumor Site: Type of Lesion: LYMPHATIC SYSTEM: LYMPHOMA",active; positive
CCCCCCCCCCN(C)N=O,carcinogen call,"Species: RAT, Strain/Sex: F344/MALE, Route: GAVAGE, Dose: 0, 108 MG/ML IN CORN OIL 2/WK FOR 30 WK, STUDY DURATION: 110 WK, Dose: 0, 108 MG/ML IN CORN OIL 2/WK FOR 30 WK, STUDY DURATION: 110 WK, Tumor Site: Type of Lesion: LUNG: ADENOCARCINOMA, BLADDER",active; positive
Cc1cc(C)nc(NS(=O)(=O)c2ccc(N)cc2)n1,carcinogen call,"Species: RAT, Strain/Sex: F344/FEMALE, Route: ORAL, TRANS-PLACENTAL, Dose: 0, 10, 40, 600 1200, 2400 PPM IN DIET FOR 24 MO (PARENTS FED 0; 10; 600; 1200; 2400 PPM RESPECTIVELY IN DIET) (STUDY DUR, Dose: 0, 10, 40, 600 1200, 2400 PPM IN DIET FOR 24 MO (PARENTS FED 0; 10; 600; 1200; 2400 PPM RESPECTIVELY IN DIET) (STUDY DUR, Tumor Site: Type of Lesion: THYROID GLAND: FOLLICULAR CELL ADENOCARCINOMA",active; positive
same,carcinogen call,"Species: RAT, Strain/Sex: F344/MALE, Route: ORAL, TRANS-PLACENTAL, Dose: 0, 10, 40, 600 1200, 2400 PPM IN DIET FOR 24 MO (PARENTS FED 0; 10; 600; 1200; 2400 PPM RESPECTIVELY IN DIET) (STUDY DUR, Dose: 0, 10, 40, 600 1200, 2400 PPM IN DIET FOR 24 MO (PARENTS FED 0; 10; 600; 1200; 2400 PPM RESPECTIVELY IN DIET) (STUDY DUR, Tumor Site: Type of Lesion: THYROID GLAND: FOLLICULAR CELL ADENOCARCINOMA",active; positive
Cc1c(O)cc2c(c1C)OC(C)(CCCC(C)CCCC(C)CCCC(C)C)CC2 (stereo not drawn),carcinogen call,"Species: MOUSE, Strain/Sex: 6HF1/MALE, Route: ORAL, Dose: 0, 5% IN BASAL DIET FOR 104 WK (STUDY DURATION: 104 WK), Tumor Site: Type of Lesion: LIVER: TUMOR",active; positive
C=C(C)C#N,carcinogen call,"Species: MOUSE, Strain/Sex: B6C3F1/FEMALE, Route: GAVAGE, Dose: 0, 1.5, 3, 6 MG/KG 5 D/WK FOR 104-105 WK (STUDY DURATION: 104-105 WK), Dose: 0, 1.5, 3, 6 MG/KG 5 D/WK FOR 104-105 WK (STUDY DURATION: 104-105 WK)",inactive; negative
same,carcinogen call,"Species: MOUSE, Strain/Sex: B6C3F1/MALE, Route: GAVAGE, Dose: 0, 1.5, 3, 6 MG/KG 5 D/WK FOR 104-105 WK (STUDY DURATION: 104-105 WK), Dose: 0, 1.5, 3, 6 MG/KG 5 D/WK FOR 104-105 WK (STUDY DURATION: 104-105 WK)",inactive; negative
same,carcinogen call,"Species: RAT, Strain/Sex: F344/FEMALE, Route: GAVAGE, Dose: 0, 3, 10, 30 MG/KG 5 D/WK FOR 104-105 WK (STUDY DURATION: 104-105 WK), Dose: 0, 3, 10, 30 MG/KG 5 D/WK FOR 104-105 WK (STUDY DURATION: 104-105 WK)",inactive; negative
same,carcinogen call,"Species: RAT, Strain/Sex: F344/MALE, Route: GAVAGE, Dose: 0, 3, 10, 30 MG/KG 5 D/WK FOR 104-105 WK (STUDY DURATION: 104-105 WK), Dose: 0, 3, 10, 30 MG/KG 5 D/WK FOR 104-105 WK (STUDY DURATION: 104-105 WK)",inactive; negative
CCCCN(N=O)C(N)=O,carcinogen call,"Species: MOUSE (NEWBORN), Strain/Sex: CD-1/MALE,FEMALE, Route: SUBCUTANEOUS, Dose: 333 MG/KG IN 1% GEL SOLN WITHIN 24 HR OF BIRTH, Tumor Site: Type of Lesion: LUNG: ADENOMA, ADENOCARCINOMA, LIVER: ADENOMA",active; positive
same,carcinogen call,"Species: RAT, Strain/Sex: F344/FEMALE, Route: GAVAGE, Dose: 0, 15 MG/ML (TOTAL DOSE 0; 1.7 MMOL) IN 2 ML ETHYL ACETATE AND CORN OIL (1:2) 2/WK FOR 40 WK (STUDY DURATION: LIFETIME), Dose: 0, 15 MG/ML (TOTAL DOSE 0; 1.7 MMOL) IN 2 ML ETHYL ACETATE AND CORN OIL (1:2) 2/WK FOR 40 WK (STUDY DURATION: LIFETIME), Tumor Site: Type of Lesion: FORESTOMACH: SQUAMOUS CELL CARCINOMA, LUNG: TUMOR, MAMMARY GLAND: TUMOR, UTERUS: TUMOR, Tumor Site: Type of Lesion: FORESTOMACH: SQUAMOUS CELL CARCINOMA, LUNG: TUMOR, MAMMARY GLAND: TUMOR, UTERUS: TUMOR",active; positive
same,carcinogen call,"Species: RAT, Strain/Sex: F344/FEMALE, Route: GAVAGE, Dose: 0, 15 MG/ML IN 0.2 ML ETHYL ACETATE AND CORN OIL 2/WK FOR 40 WK (STUDY DURATION: LIFESPAN), Tumor Site: Type of Lesion: FORESTOMACH: TUMOR, LUNG: TUMOR, MAMMARY GLAND: TUMOR, UTERUS: TUMOR, Tumor Site: Type of Lesion: FORESTOMACH: TUMOR, LUNG: TUMOR, MAMMARY GLAND: TUMOR, UTERUS: TUMOR",active; positive
same,carcinogen call,"Species: RAT, Strain/Sex: F344/MALE, Route: GAVAGE, Dose: 0, 15 MG/ML (TOTAL DOSE 0; 1.7 MMOL) IN 2 ML ETHYL ACETATE AND CORN OIL (1:2) 2/WK FOR 40 WK (STUDY DURATION: LIFETIME), Dose: 0, 15 MG/ML (TOTAL DOSE 0; 1.7 MMOL) IN 2 ML ETHYL ACETATE AND CORN OIL (1:2) 2/WK FOR 40 WK (STUDY DURATION: LIFETIME), Tumor Site: Type of Lesion: FORESTOMACH: SQUAMOUS CELL CARCINOMA, LUNG: TUMOR",active; positive
same,carcinogen call,"Species: RAT, Strain/Sex: F344/MALE, Route: GAVAGE, Dose: 0, 15 MG/ML IN 0.2 ML ETHYL ACETATE AND CORN OIL 2/WK FOR 40 WK (STUDY DURATION: LIFESPAN), Tumor Site: Type of Lesion: FORESTOMACH: TUMOR, LUNG: TUMOR",active; positive
C=CC(O)c1ccc(OC)cc1 (stereo not drawn),carcinogen call,"Species: MOUSE, Strain/Sex: CD-1/MALE, Route: SUBCUTANEOUS, Dose: 0, 0.17 UMOL IN 0.025 ML TRIOCTANOIN WITHIN 24 H AFTER BIRTH THEN 0, 0.47 UMOL IN 0.05 ML TRIOCTANOIN ON D 8, 0, 0.95 UM, Dose: 0, 0.17 UMOL IN 0.025 ML TRIOCTANOIN WITHIN 24 H AFTER BIRTH THEN 0, 0.47 UMOL IN 0.05 ML TRIOCTANOIN ON D 8, 0, 0.95 µM, Tumor Site: Type of Lesion: LIVER: HEPATOCELLULAR CARCINOMA",active; positive
Nc1ccc(-c2ccccc2)cc1,carcinogen call,"Species: DOG, Route: ORAL, Tumor Site: Type of Lesion: URINARY BLADDER",active; positive
same,carcinogen call,"Species: HUMAN, Route: ORAL, INHALATION, DERMAL, Tumor Site: Type of Lesion: URINARY BLADDER",active; positive
same,carcinogen call,"Species: MOUSE, Route: ORAL, Tumor Site: Type of Lesion: URINARY BLADDER, LIVER",active; positive
same,carcinogen call,"Species: MOUSE, Route: SUBCUTANEOUS, Tumor Site: Type of Lesion: LIVER",active; positive
same,carcinogen call,"Species: MOUSE, Strain/Sex: B6C3F1/MALE, Route: INTRAPERITONEAL, Dose: 0, 0.625 UMOL IN 35 µL DMSO ON D 1, 8, AND 15 AFTER BIRTH (STUDY DURATION: 8 MO), Tumor Site: Type of Lesion: LIVER: HEPATOCELLULAR ADENOMA",active; positive
same,carcinogen call,"Species: MOUSE, Strain/Sex: B6C3F1/MALE, Route: INTRAPERITONEAL, Dose: 0, 0.625 UMOL IN 35 µL DMSO ON D 1, 8, AND 15 AFTER BIRTH (STUDY DURATION: 12 MO), Tumor Site: Type of Lesion: LIVER: HEPATOCELLULAR ADENOMA, HEPATOCELLULAR CARCINOMA",active; positive
same,carcinogen call,"Species: MOUSE, Strain/Sex: B6C3F1/MALE, Route: INTRAPERITONEAL, Dose: 0, 1.25 UMOL IN 35 µL DMSO ON D 1, 8, AND 15 AFTER BIRTH (STUDY DURATION: 8 MO), Tumor Site: Type of Lesion: LIVER: HEPATOCELLULAR ADENOMA",active; positive
same,carcinogen call,"Species: MOUSE, Strain/Sex: B6C3F1/MALE, Route: INTRAPERITONEAL, Dose: 0, 1.25 UMOL IN 35 µL DMSO ON D 1, 8, AND 15 AFTER BIRTH (STUDY DURATION: 12 MO), Tumor Site: Type of Lesion: LIVER: HEPATOCELLULAR ADENOMA, HEPATOCELLULAR CARCINOMA",active; positive
same,carcinogen call,"Species: MOUSE, Strain/Sex: BALB/CSTCRLFC3HF/NCTR/FEMALE, Route: ORAL, Dose: 0, 7, 19, 38, 75, 150, 300 PPM IN DRINKING WATER FOR 96 WK (STUDY DURATION: 96 WK), Dose: 0, 7, 19, 38, 75, 150, 300 PPM IN DRINKING WATER FOR 96 WK (STUDY DURATION: 96 WK), Tumor Site: Type of Lesion: BLOOD VESSELS: ANGIOSARCOMA, LIVER: HEPATOCELLULAR CARCINOMA",active; positive
same,carcinogen call,"Species: MOUSE, Strain/Sex: BALB/CSTCRLFC3HF/NCTR/MALE, Route: ORAL, Dose: 0, 7, 14, 28, 55, 110, 220 PPM IN DRINKING WATER FOR 96 WK (STUDY DURATION: 96 WK), Dose: 0, 7, 14, 28, 55, 110, 220 PPM IN DRINKING WATER FOR 96 WK (STUDY DURATION: 96 WK), Tumor Site: Type of Lesion: BLOOD VESSELS: ANGIOSARCOMA, BLADDER: CARCINOMA",active; positive
same,carcinogen call,"Species: RABBIT, Route: ORAL, Tumor Site: Type of Lesion: URINARY BLADDER",active; positive
same,carcinogen call,"Species: RAT, Route: SUBCUTANEOUS, Tumor Site: Type of Lesion: MAMMARY GLAND, INTESTINES",active; positive
